The results in this text go back to PMC6391970, “Design, Synthesis and Characterization of Covalent KDM5 Inhibitors” (Angewandte Chemie (International Ed. in English), 2018).

In data set [1] the test system is HEK-293 cells. The experiment in a line: Cytotoxicity assessment, Cell Titer-Glo, 72 hours. The note with it: CTG viability at 72 hrs. It counts as cell-based, human. The text has this: Immunofluorescence‐based assays have been previously used to analyse global changes in H3K4me3 as a measure of KDM5 activity, but the global change can be affected by other factors such as cytotoxicity.17 We therefore employed chromatin immunoprecipitation and sequencing (ChIP‐seq) as a more accurate method to quantify the H3K4me3 level at transcriptional start sites (TSS) as a read‐out for inhibition of KDM5 activity. […] Compounds 4, 7 and 9 were selected for H3K4me3 ChIP‐seq experiments and quantification.18 […]
(§1) Covalent binding RapidFire
Recombinant KDM5B (MW = 55152 Da) was incubated at 1 μM with the appropriate compound at 10 μM for 2 hours at 37 °C in 50 mM MES buffer at pH 7.0. Samples were injected in RapidFire 365 and MS was detected in QTOF mass spectrometer. Data were acquire and analysed with Agilent Mass Hunter software. […]
(§2) Digestion with elastase (1 µL) overnight at 37 °C followed by purification with SEP-PAK C18 columns and resuspension of the final sample in 98% MilliQ-H20 2% CH3CN 0.1% TFA gave the final sample ready to inject. […]
NanoBRET™ Nano-Glo® substrate (Promega UK) and Extracellular NanoLuc Inhibitor (Promega UK) were added at final concentrations of 10 and 20 µM, respectively. Readings were performed within 5 minutes using a PHERAstar FSX (BMG Labtech) with 450 and 610 nm filters. […] BRET ratios are expressed as milliBRET units (mBU), where 1 mBU corresponds to […]
In general terms: In ATP-based viability assays light output follows the ATP content of the culture.

Data set [2] deals with T1, KDM4B (Homo sapiens, UniProt O94953).
T1 sequence (O94953 1-1096): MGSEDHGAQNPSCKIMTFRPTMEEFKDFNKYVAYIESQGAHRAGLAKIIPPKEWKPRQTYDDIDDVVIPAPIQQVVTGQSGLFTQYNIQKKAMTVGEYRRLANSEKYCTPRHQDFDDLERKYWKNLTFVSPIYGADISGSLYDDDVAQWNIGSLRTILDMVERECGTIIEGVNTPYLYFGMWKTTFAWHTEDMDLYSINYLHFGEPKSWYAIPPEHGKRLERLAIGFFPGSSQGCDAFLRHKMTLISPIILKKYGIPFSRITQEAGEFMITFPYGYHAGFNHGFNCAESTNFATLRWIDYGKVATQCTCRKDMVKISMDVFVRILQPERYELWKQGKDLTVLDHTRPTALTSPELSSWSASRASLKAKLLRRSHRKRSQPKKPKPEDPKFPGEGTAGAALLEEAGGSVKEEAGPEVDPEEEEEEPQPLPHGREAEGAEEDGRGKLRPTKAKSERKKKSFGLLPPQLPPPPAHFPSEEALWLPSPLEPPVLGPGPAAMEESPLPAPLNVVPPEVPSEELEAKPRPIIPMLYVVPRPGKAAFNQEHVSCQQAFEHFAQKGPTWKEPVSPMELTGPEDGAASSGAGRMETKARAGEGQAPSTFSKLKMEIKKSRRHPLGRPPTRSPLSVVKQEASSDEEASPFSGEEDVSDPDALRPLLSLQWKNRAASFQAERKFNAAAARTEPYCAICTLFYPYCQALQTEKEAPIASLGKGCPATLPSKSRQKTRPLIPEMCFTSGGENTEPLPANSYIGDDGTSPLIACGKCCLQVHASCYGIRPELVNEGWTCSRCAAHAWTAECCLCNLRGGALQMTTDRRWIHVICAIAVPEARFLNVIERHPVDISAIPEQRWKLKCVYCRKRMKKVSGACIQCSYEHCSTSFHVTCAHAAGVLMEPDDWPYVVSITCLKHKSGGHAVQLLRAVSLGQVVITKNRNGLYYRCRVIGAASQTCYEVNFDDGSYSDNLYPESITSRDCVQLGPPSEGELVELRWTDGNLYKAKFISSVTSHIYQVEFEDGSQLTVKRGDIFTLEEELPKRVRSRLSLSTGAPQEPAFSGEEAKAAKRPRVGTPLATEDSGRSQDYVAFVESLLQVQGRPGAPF
In words: Covalent binding by MS, KDM4B. The note with it: same conditions as with KDM5B. The method, then:
Covalent binding of the inhibitors with KDM5B was confirmed through MS‐labelling experiments (Figure 3). […] The specific covalent binding to KDM5B explains the improved selectivity over KDM5C and KDM4B compared to non‐covalent inhibitor 2.
as §1
Recombinant KDM5B (MW = 55152 Da) was incubated at 1 μM with the appropriate compound at 10 μM for 2 hours at 37 °C in 50 mM MES buffer at pH 7.0. Samples were injected in RapidFire 365 and MS was detected in QTOF mass spectrometer. Data were acquire and analysed with Agilent Mass Hunter software.
Recombinant KDM5B was incubated at 1 μM with the appropriate compound at 10 μM for 2 hours at 37 °C in 200 µL of 50 mM MES buffer at pH 7.0. […]
as §2
NanoBRET™ Nano-Glo® substrate (Promega UK) and Extracellular NanoLuc Inhibitor (Promega UK) were added at final concentrations of 10 and 20 µM, respectively. Readings were performed within 5 minutes using a PHERAstar FSX (BMG Labtech) with 450 and 610 nm filters. Corrected BRET ratios were calculated and is defined as the ratio if the emission at 610/450 nm for experimental samples (i.e. those treated with tracer) minus the emission at 610/450 nm for control samples (DMSO controls). […]

As for `CN(CCc1cnn(-c2nccc3c(=O)[nH]cnc23)c1)Cc1cccc(NC(=O)CCl)c1` [Compound 5], the “cytotoxicity in HEK cells” value in data set [1] was “with the exception of 5, compounds were not cytotoxic”.

Regarding `CN(C)C/C=C/C(=O)Nc1cccc(CN(C)CCc2cnn(-c3nccc4c(=O)[nH]cnc34)c2)c1` [Compound 6], the “covalent binding to KDM4B by MS” value in data set [2] is recorded as “no covalent binding”.
